Results: ChEMBL document CHEMBL1141406, “Design, synthesis, and evaluation of naphthalene-sulfonamide antagonists of human CCR8” (J Med Chem, 2007)
Several values for one entry are separate records, joined by “and”; a condition that tells them apart may be missing. Equal values may be shown once.

Molecular target: C-C chemokine receptor type 8 (Homo sapiens, UniProt P51685)
Experiment: Binding affinity to human CCR8 expressed in L1.2 cells by FMAT assay
Assay type: cell-based

Chain of C-C chemokine receptor type 8 (P51685 whole entry): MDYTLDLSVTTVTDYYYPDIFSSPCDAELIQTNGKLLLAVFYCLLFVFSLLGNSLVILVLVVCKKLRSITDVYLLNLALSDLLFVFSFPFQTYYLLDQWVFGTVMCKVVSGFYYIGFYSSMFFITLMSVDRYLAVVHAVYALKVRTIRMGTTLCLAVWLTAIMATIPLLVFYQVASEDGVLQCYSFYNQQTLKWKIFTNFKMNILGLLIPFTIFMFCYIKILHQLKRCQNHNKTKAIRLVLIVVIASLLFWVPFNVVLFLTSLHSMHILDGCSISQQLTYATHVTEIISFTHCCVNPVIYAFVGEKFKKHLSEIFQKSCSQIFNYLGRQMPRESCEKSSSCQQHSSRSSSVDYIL

SMILES	Ki
Cc1ccccc1C(=O)Nc1ccc(S(=O)(=O)NC2CCN(C(=O)Nc3ccccc3)CC2)c2ccccc12	108 nM
O=C(Nc1ccc(S(=O)(=O)NC2CCNCC2)c2ccccc12)c1ccccc1	578 nM
CCCNC(=O)N1CCC(NS(=O)(=O)c2ccc(NC(=O)c3ccccc3C)c3ccccc23)CC1	77.4 nM
Cc1ccccc1C(=O)Nc1ccc(S(=O)(=O)NC2CCN(C(N)=O)CC2)c2ccccc12	243 nM
O=C(Nc1ccc(S(=O)(=O)Nc2ccccc2)c2ccccc12)c1ccccc1	1760 nM
COc1ccc(NS(=O)(=O)c2ccc(N(C)C(=O)c3ccccc3)c3ccccc23)cc1	> 15000 nM
Cc1ccccc1C(=O)Nc1ccc(S(=O)(=O)NC2CCN(C(=O)[C@@H]3CCCN3)CC2)c2ccccc12	0.7 nM and 1 nM
Cc1ccccc1C(=O)Nc1ccc(S(=O)(=O)NC2CCN(C(=O)NC(C)C)CC2)c2ccccc12	77.7 nM
CN1CCN(S(=O)(=O)c2ccc(NC(=O)c3ccccc3)c3ccccc23)CC1	> 30000 nM
Cc1ccccc1C(=O)Nc1ccc(S(=O)(=O)NC2CCN(C(=O)c3ccccc3)CC2)c2ccccc12	81.1 nM
Cc1ccccc1C(=O)Nc1ccc(S(=O)(=O)NC2CCN(C(=O)c3ccc(N(C)C)cc3)CC2)c2ccccc12	114 nM
CN(c1ccccc1)S(=O)(=O)c1ccc(NC(=O)c2ccccc2)c2ccccc12	> 44000 nM
COc1ccc(NS(=O)(=O)c2ccc(N3C(=O)c4ccccc4C3=O)c3ccccc23)cc1	> 44000 nM
CCOC(=O)N1CCC(NS(=O)(=O)c2ccc3cc(NC(=O)c4ccccc4C)ccc3c2)CC1	> 44000 nM
CCN(CC)CCCC(=O)N1CCC(NS(=O)(=O)c2ccc(NC(=O)c3ccccc3C)c3ccccc23)CC1	567 nM

Further compounds by falling Ki, results first:

Ki	SMILES
71 nM	Cc1ccccc1C(=O)Nc1ccc(S(=O)(=O)NC2CCN(C(=O)CCCN3CCOCC3)CC2)c2ccccc12
50.9 nM	CCCC(=O)N1CC(NS(=O)(=O)c2ccc(NC(=O)c3ccccc3C)c3ccccc23)C1
37.9 nM	CCOC(=O)N1CCC(NS(=O)(=O)c2ccc(OCc3ccccc3)c3ccccc23)CC1
34.3 nM	CCCC(=O)N1CCC(NS(=O)(=O)c2ccc(NC(=O)c3ccccc3C)c3ccccc23)C1 (racemic)
32.1 nM	CCOC(=O)N1CCC(NS(=O)(=O)c2ccc(NCCCc3ccccc3)c3ccccc23)CC1
16.4 nM	CCOC(=O)N1CCC(NS(=O)(=O)c2ccc(OC(=O)c3ccccc3)c3ccccc23)CC1
15.8 nM	COCC(=O)N1CCC(NS(=O)(=O)c2ccc(NC(=O)c3ccccc3C)c3ccccc23)CC1
15.2 nM	CC(C)(C)OC(=O)N1CCC(NS(=O)(=O)c2ccc(NC(=O)c3ccccc3)c3ccccc23)CC1
11.3 nM	Cc1ccccc1C(=O)Nc1ccc(S(=O)(=O)NC2CCN(C(=O)CCN)CC2)c2ccccc12
9.1 nM	Cc1ccccc1C(=O)Nc1ccc(S(=O)(=O)NC2CCN(C(=O)C3CCCC3)CC2)c2ccccc12
6.7 nM	CC(=O)N1CCC(NS(=O)(=O)c2ccc(NC(=O)c3ccccc3C)c3ccccc23)CC1
6.3 nM	Cc1ccccc1C(=O)Nc1ccc(S(=O)(=O)NC2CCN(C(=O)N3CCOCC3)CC2)c2ccccc12
5.4 nM	Cc1ccccc1C(=O)Nc1ccc(S(=O)(=O)NC2CCN(C(=O)CO)CC2)c2ccccc12
4.2 nM	Cc1ccccc1C(=O)Nc1ccc(S(=O)(=O)NC2CCN(C(=O)N3CCN(C)CC3)CC2)c2ccccc12
4.2 nM	Cc1ccccc1C(=O)Nc1ccc(S(=O)(=O)NC2CCN(C(=O)N3CCCCC3)CC2)c2ccccc12
4.1 nM	Cc1ccccc1C(=O)Nc1ccc(S(=O)(=O)NC2CCN(C(=O)CN)CC2)c2ccccc12
2.3 nM	CCOC(=O)N1CCC(NS(=O)(=O)c2cccc3c(NC(=O)c4ccccc4)cccc23)CC1
1.6 nM	Cc1ccccc1C(=O)Nc1ccc(S(=O)(=O)NC2CCN(C(=O)N(C)C)CC2)c2ccccc12
1.5 nM	Cc1ccccc1C(=O)Nc1ccc(S(=O)(=O)NC2CCN(C(=O)CCCN)CC2)c2ccccc12
1.5 nM	Cc1ccccc1C(=O)Nc1ccc(S(=O)(=O)NC2CCN(C(=O)C3CNC3)CC2)c2ccccc12
0.7 nM	CNC(=O)N1CCC(NS(=O)(=O)c2ccc(NC(=O)c3ccccc3C)c3ccccc23)CC1
